ChEMBL document CHEMBL4376834, “Discovery of 4H-Chromen-4-one Derivatives as a New Class of Selective Rho Kinase (ROCK) Inhibitors, which Showed Potent Activity in ex Vivo Diabetic Retinopathy Models” (J Med Chem, 2019)

How the values were obtained:
[1] = molecular target: Maternal embryonic leucine zipper kinase (Homo sapiens, UniProt Q14680); experiment: Inhibition of recombinant human MELK (1 to 340 residues) using KKLNRTLSFAEPG as substrate incubated for 40 mins in presence of [gamma-33ATP by radiometric scintillation counting analysis
[2] = Inhibition of recombinant human PAK2 L150F/P225T/A339 deletion/V383I mutant (3 to end residues) using KEAKEKRQEQIAKR as substrate incubated for 40 mins in presence of [gamma33P]ATP by radiometric scintillation counting analysis
[3] = molecular target: Serine/threonine-protein kinase NLK (Homo sapiens, UniProt Q9UBE8); experiment: Inhibition of recombinant human NLK (121 to end residues) using protein as substrate measured after 40 mins in presence of [gamma33P]ATP by radiometric scintillation counting analysis
[4] = molecular target: Wee1-like protein kinase 2 (Homo sapiens, UniProt P0C1S8); experiment: Inhibition of recombinant full length human WEE1b using LSNLYHQGKFLQTFCGSPLYRRR as substrate incubated for 120 mins in presence of [gamma33P]ATP by radiometric scintillation counting analysis
[5] = molecular target: Platelet-derived growth factor receptor alpha (Homo sapiens, UniProt P16234, V561D); experiment: Inhibition of human PDGFRalpha V561D mutant (550 to end residues) using GGMEDIYFEFMGG as substrate measured after 40 mins in presence of [gamma33P]ATP by radiometric scintillation counting analysis
Ephrin type-A receptor 8 = Ephrin type-A receptor 8 (Homo sapiens, UniProt P29322); experiment: Inhibition of recombinant human EPhA8 (615 to 911 residues) at 10 uM using KTFCGTPEYLAPE as substrate incubated for 40 mins in presence of [gamma-33PATP] by radiometric scintillation counting analysis
[6] = molecular target: Hepatocyte growth factor receptor (Homo sapiens, UniProt P08581, Y1230C); experiment: Inhibition of recombinant human MET A1209G/V1290L/Y1248C triple mutant (974 to end residues) using KKKGQEEEYVFIE as substrate incubated for 40 mins in presence of [gamma-33ATP by radiometric scintillation counting analysis
[7] = molecular target: Serine/threonine-protein kinase TAO3 (Homo sapiens, UniProt Q9H2K8); experiment: Inhibition of recombinant human TAO3 N47S mutant (1 to 411 residues) using myelin basic protein as substrate incubated for 40 mins in presence of [gamma33P]ATP by radiometric scintillation counting analysis
Misshapen-like kinase 1 = Misshapen-like kinase 1 (Homo sapiens, UniProt Q8N4C8); experiment: Inhibition of recombinant human MINK (1 to 310 residues) using myelin basic protein as substrate incubated for 40 mins in presence of [gamma-33ATP by radiometric scintillation counting analysis
Activated CDC42 kinase 1 = Activated CDC42 kinase 1 (Homo sapiens, UniProt Q07912); experiment: Inhibition of human recombinant ACK1 (1 to 389 residues) using EFPIYDFLPAKKK as substrate incubated for 40 mins in presence of [gamma-33P]ATP by radiometric scintillation counting analysis
[8] = molecular target: Casein kinase I isoform gamma-3 (Homo sapiens, UniProt Q9Y6M4, E302D/K91E/R174G); experiment: Inhibition of recombinant human CK1gamma3 K91E/R174G/E302D triple mutant (1 to 330 residues) using KRRRALS(p)VAS as substrate incubated for 40 mins in presence of [gamma-33ATP] by radiometric scintillation counting analysis
[9] = molecular target: Serine/threonine-protein kinase D1 (Homo sapiens, UniProt Q15139); experiment: Inhibition of recombinant full-length human PKCmu R135A mutant using KKLNRTLSVA as substrate incubated for 40 mins in presence of [gamma33P]ATP by radiometric scintillation counting analysis
Myotonin-protein kinase = Myotonin-protein kinase (Homo sapiens, UniProt Q09013); experiment: Inhibition of recombinant human DMPK (1 to 549 residues) using KKSRGDYMTMQIG as substrate after 40 mins in presence of [gamma-33ATP] by radiometric scintillation counting analysis
[10] = molecular target: [Pyruvate dehydrogenase (acetyl-transferring)] kinase isozyme 4, mitochondrial (Homo sapiens, UniProt Q16654); experiment: Inhibition of recombinant human full length PDHK4 using KKKYHGHSMSDPG as substrate incubated for 40 mins in presence of [gamma33P]ATP by radiometric scintillation counting analysis
[11] = molecular target: Tyrosine-protein kinase Blk (Homo sapiens, UniProt P51451); experiment: Inhibition of human full-length recombinant BLK M287V mutant using poly(Glu, Tyr) 4:1 as substrate measured after 40 mins in presence of [gamma33P]ATP by radiometric scintillation counting analysis
[12] = molecular target: Serine/threonine-protein kinase pim-1 (Homo sapiens, UniProt P11309); experiment: Inhibition of recombinant full length human Pim1 using KKRNRTLTV as substrate incubated for 40 mins in presence of [gamma33P]ATP by radiometric scintillation counting analysis
[13] = molecular target: Serine/threonine-protein kinase WNK2 (Homo sapiens, UniProt Q9Y3S1); experiment: Inhibition of recombinant human WNK2 (166 to 489 residues) using myelin basic protein as substrate incubated for 40 mins in presence of [gamma33P]ATP by radiometric scintillation counting analysis
[14] = molecular target: Receptor-type tyrosine-protein kinase FLT3 (Homo sapiens, UniProt P36888); experiment: Inhibition of recombinant human FLT3 (564 to end residues) using EAIYAAPFAKKK as substrate after 40 mins in presence of [gamma-33ATP] by radiometric scintillation counting analysis
SRSF protein kinase 2 = SRSF protein kinase 2 (Homo sapiens, UniProt P78362); experiment: Inhibition of recombinant human SRPK2 (46 to end residues) using RSRSRSRSRSRSRSR as substrate incubated for 40 mins in presence of [gamma33P]ATP by radiometric scintillation counting analysis
[15] = molecular target: Serine/threonine-protein kinase BRSK2 (Homo sapiens, UniProt Q8IWQ3); experiment: Inhibition of recombinant human BRSK2 (2 to end residues) using KKLNRTLSFAEPG substrate incubated for 40 mins in presence of [gamma-33ATP] by radiometric scintillation counting analysis
TGF-beta receptor type-2 = TGF-beta receptor type-2 (Homo sapiens, UniProt P37173); experiment: Inhibition of recombinant human TGFBR2 (188 to end residues) using MBP as substrate incubated for 120 mins in presence of [gamma33P]ATP by radiometric scintillation counting analysis
[16] = molecular target: Dual specificity tyrosine-phosphorylation-regulated kinase 2 (Homo sapiens, UniProt Q92630); experiment: Inhibition of recombinant full length human DYRK2 using casein as substrate after 40 mins in presence of [gamma-33ATP] by radiometric scintillation counting analysis
[17] = Inhibition of recombinant human TIE2 Q939H/Q940H/ R849W triple mutant (771 to end residues) using EFPIYDFLPAKKK as substrate incubated for 40 mins in presence of [gamma33P]ATP by radiometric scintillation counting analysis
[18] = Inhibition of recombinant full length human PRAK R291E mutant using KKLRRTLSVA as substrate incubated for 40 mins in presence of [gamma33P]ATP by radiometric scintillation counting analysis

Measured: IC50

Receptor-type tyrosine-protein kinase FLT3, sequence (P36888 whole entry): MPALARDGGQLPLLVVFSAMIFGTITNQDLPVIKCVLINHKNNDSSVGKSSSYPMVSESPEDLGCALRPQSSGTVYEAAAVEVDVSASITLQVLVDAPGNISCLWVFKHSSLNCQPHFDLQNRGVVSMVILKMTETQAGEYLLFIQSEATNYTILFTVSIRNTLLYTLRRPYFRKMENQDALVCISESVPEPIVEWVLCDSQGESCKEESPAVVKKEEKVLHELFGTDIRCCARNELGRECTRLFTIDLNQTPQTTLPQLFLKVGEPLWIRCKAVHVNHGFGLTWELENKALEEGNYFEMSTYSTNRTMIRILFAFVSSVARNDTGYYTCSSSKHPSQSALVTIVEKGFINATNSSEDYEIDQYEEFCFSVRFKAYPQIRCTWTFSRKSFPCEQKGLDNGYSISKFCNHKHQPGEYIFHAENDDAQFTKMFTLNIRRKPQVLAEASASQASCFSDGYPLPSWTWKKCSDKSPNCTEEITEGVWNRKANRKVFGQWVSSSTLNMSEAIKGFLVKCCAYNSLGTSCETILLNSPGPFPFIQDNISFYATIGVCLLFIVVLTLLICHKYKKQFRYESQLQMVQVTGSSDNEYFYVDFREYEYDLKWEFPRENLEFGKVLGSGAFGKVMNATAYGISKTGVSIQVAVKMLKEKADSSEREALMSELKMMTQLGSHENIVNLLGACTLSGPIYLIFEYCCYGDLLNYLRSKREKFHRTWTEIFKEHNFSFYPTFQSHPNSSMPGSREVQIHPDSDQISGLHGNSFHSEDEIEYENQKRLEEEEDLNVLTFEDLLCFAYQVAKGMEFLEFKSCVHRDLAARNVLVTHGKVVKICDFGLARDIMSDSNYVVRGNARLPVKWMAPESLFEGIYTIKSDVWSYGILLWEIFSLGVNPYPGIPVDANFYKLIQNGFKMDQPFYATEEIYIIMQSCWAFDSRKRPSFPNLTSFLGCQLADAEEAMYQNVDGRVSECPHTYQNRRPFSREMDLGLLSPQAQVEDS
Serine/threonine-protein kinase NLK, sequence (Q9UBE8 whole entry): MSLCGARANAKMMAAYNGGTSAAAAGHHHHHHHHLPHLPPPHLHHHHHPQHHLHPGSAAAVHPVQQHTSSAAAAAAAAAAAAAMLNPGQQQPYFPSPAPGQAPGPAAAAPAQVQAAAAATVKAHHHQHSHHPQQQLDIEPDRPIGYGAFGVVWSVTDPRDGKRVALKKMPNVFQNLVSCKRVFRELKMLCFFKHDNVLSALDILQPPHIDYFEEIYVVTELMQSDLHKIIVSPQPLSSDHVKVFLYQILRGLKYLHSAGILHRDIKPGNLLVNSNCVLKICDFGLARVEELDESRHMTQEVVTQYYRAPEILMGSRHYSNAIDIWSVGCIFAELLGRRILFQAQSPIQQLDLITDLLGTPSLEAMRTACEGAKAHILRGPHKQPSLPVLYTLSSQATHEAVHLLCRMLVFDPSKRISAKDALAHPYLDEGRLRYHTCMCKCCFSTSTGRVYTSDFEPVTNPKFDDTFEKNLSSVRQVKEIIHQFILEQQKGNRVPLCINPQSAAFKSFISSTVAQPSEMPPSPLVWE
SRSF protein kinase 2, sequence (P78362 whole entry): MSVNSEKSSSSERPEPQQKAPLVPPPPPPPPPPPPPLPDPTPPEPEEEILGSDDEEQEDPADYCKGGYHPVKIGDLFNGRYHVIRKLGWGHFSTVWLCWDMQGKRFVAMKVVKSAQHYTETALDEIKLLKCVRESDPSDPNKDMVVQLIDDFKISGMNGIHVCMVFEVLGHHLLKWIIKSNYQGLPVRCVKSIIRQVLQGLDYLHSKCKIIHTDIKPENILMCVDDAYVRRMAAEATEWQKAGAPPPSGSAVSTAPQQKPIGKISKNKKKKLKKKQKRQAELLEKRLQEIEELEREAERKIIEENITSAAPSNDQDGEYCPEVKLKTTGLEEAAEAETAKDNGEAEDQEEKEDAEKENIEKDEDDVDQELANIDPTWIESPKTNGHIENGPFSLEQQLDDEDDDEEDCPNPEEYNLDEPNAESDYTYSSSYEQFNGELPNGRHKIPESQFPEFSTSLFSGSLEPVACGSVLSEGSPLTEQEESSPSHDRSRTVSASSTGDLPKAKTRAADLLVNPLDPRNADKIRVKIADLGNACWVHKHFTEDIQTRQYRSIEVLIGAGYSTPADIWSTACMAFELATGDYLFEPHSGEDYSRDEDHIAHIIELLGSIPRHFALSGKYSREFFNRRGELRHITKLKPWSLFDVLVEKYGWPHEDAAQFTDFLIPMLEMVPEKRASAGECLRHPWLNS
Platelet-derived growth factor receptor alpha, sequence (P16234 24-1089 V561D limits assumed): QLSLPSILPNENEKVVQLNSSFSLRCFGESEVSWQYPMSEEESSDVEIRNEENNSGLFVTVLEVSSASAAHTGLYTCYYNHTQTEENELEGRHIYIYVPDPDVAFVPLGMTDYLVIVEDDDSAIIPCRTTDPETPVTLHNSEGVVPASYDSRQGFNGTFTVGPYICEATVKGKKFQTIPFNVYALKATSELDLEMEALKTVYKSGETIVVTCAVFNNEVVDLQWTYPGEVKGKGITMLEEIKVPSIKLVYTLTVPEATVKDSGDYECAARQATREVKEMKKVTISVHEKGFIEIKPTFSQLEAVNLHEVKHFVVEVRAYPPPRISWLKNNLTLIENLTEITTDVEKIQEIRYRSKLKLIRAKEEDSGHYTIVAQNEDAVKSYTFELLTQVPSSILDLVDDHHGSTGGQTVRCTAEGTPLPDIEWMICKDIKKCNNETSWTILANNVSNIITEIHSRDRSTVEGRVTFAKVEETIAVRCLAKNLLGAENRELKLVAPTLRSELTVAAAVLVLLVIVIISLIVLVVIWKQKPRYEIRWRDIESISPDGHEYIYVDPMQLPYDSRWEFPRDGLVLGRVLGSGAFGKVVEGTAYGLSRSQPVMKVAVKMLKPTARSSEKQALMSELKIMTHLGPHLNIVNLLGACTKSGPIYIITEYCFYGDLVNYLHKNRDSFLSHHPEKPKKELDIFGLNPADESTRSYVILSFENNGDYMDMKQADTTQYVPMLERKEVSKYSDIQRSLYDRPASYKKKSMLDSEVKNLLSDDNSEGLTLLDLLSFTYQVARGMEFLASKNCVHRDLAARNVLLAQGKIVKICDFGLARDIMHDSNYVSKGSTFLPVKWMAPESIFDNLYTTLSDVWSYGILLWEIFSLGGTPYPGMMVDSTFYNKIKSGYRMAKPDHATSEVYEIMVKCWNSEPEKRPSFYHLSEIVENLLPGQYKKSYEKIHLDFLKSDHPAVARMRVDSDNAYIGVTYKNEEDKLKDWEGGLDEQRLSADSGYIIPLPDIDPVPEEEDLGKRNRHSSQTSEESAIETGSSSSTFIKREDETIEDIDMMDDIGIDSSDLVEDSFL
Casein kinase I isoform gamma-3, sequence (Q9Y6M4 whole entry K91E, the tested form may be a part, canonical isoform): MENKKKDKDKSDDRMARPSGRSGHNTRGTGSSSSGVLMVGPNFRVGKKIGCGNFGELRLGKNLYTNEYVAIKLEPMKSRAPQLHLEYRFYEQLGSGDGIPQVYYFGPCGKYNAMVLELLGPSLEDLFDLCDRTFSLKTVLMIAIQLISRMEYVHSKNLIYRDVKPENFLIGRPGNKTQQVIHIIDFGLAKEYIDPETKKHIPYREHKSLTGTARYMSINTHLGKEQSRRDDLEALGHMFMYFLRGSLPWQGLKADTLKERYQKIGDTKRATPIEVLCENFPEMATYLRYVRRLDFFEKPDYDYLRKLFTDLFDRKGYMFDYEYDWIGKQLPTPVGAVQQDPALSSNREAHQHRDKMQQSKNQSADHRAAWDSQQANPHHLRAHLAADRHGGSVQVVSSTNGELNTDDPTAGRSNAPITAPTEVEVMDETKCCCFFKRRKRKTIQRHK
Dual specificity tyrosine-phosphorylation-regulated kinase 2, sequence (Q92630 whole entry): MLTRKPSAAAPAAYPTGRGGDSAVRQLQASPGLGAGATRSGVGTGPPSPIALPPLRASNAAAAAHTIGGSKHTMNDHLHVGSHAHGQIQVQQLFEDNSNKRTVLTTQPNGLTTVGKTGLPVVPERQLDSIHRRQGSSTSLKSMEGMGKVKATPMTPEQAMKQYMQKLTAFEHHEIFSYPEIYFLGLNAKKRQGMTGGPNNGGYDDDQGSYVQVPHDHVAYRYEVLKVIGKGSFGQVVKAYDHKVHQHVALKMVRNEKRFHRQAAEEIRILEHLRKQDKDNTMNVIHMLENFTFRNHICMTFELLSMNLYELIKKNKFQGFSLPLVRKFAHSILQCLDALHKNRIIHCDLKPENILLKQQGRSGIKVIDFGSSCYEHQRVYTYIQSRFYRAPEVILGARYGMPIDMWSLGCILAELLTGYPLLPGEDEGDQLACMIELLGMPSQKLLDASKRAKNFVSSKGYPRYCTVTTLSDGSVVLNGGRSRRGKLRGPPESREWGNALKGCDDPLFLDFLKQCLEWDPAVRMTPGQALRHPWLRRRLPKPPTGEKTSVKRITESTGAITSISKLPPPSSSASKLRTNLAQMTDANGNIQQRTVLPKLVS
Serine/threonine-protein kinase BRSK2, sequence (Q8IWQ3 whole entry): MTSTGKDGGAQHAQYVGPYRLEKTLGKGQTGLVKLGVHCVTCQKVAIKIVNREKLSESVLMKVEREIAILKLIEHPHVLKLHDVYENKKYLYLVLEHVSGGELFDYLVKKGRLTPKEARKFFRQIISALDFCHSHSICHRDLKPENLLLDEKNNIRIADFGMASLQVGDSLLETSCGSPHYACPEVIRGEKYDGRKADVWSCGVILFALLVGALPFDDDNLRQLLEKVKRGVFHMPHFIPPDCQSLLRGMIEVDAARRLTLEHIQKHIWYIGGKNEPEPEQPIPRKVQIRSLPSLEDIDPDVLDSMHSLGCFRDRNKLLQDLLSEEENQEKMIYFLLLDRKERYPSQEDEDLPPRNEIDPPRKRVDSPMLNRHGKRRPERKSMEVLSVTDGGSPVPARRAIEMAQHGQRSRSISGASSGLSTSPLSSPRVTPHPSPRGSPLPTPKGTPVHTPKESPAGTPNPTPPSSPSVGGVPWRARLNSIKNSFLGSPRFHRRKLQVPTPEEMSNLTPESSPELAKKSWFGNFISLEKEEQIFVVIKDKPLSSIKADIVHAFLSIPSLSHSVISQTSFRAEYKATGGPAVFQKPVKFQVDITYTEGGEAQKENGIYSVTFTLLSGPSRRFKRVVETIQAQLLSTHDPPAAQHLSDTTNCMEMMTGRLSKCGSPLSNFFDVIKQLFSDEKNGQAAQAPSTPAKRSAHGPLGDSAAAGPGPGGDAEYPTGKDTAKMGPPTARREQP

CN(C)c1ccc(C(=O)Nc2cccc(NC(=O)COc3ccc4c(=O)ccoc4c3)c2)cc1
> 10 µM: all assays above
